Columns and labels:
Type in all cases: in vivo, human
subjects [1] = experiment: Trail Making Test; conditions: for Trail Making Test score, Mean: lower = faster
Experimental: (§1) The inventors have discovered various compositions and methods of improving various indices of neurological and neuroenergetic functions by administering 100 mg (once daily) dosages of DYNAMINE™ (dosage between 1.0 and 1.4 mg/kg) as described in the following:
(§2) All neuroenergetic tests as listed below were performed and data were collected after 0 and 4 days of assigned supplements (with acute effects also measured at day 4 over 180 minutes):
Trail Making Test: Day 0: Two blocks of three tests were completed. Each block of three tests was separated by 10 minutes. The median of each block was taken and then those two scores were averaged. This value was used in all statistical analysis. Day 4: Three tests were completed at four time points: after 0, 60, 120, and 180 minutes of taking dose #4. The median of the three tests at each time point was used in all statistical analysis.
The trail making test has at least two test conditions. In Condition A, a subject is asked to draw lines to connect circled numbers in a numerical sequence (e.g., 1-2-3, etc.) as rapidly in possible. In Condition B the subject is asked to draw lines to connect circled numbers and letters in an alternating numeric and alphabetic sequence (i.e., 1-A-2-B, etc.) as rapidly as possible. Although trail making tests are conceptually very simple, they are thought to reflect a wide variety of cognitive processes including attention, visual search and scanning, sequencing and shifting, psychomotor speed, abstraction, flexibility, ability to execute and modify a plan of action, and ability to maintain two trains of thought simultaneously.

subjects [2] = experiment: VAS-Vigor; parameters: VAS-Vigor rating, Mean / VAS-Vigor changes from baseline, Mean Difference ± SE / VAS-Vigor area under the curve, Mean Difference ± SE / VAS-Vigor area under the curve, Mean: scale not given here
Experimental: as §1, §2
(§3) All VAS Measurement (Energy, Sustained Energy, Mental Stamina, Ability to Focus, Ability to Concentrate, Motivation to Accomplish Difficult Tasks, Drive, Vigor, Level of Positive Outlook, Mood, Feelings of Well-Being, Tolerate Stress); Day 0: Two tests were completed. The average of both scores was computed and this value was used in all statistical analysis. Day 4 (0 minutes after ingesting dose #4): Two tests were completed. The average of both scores was computed and this value was used in all statistical analysis. Day 4 (60, 120, and 180 minutes after ingesting dose #4): One test was completed at each time point.
(§4) Neuroenergic parameters are inherently subjective, nevertheless significant in human behavior and well-being. To allow for a standardization among different subjects, the following experiments were performed using a visual analog scale using anchor statements (lowest possible/highest possible) in which subjects were asked to rate their subjective experience with respect to the specific neuroenergic parameters tested.
VAS-Vigor: In this subjective test, subjects were asked to rate their personal level of energy on a VAS scale using the prompt of “My level of vigor right now is . . . ” (with rating lowest possible to highest possible)”. Results were collected as noted above and Table 25 provides exemplary results for Day 0 versus Day 4 ratings, whereas Table 26 provides exemplary acute results measured at Day 4 over a duration of 180 minutes. […] Of note, it should be appreciated that drive is also often a function of dopamine activation. As above, is it therefore contemplated that methylliberine may also have an agonist effect on dopamine receptors or signaling.

subjects [3] = experiment: VAS-Mental Stamina; parameters: VAS-Mental Stamina rating, Mean / VAS-Mental Stamina changes from baseline, Mean Difference ± SE / VAS-Mental Stamina area under the curve, Mean Difference ± SE / VAS-Mental Stamina area under the curve, Mean: scale not given here
Experimental: as §1, §2, §3, §4
VAS-Mental Stamina: In this subjective test, subjects were asked to rate their personal level of energy on a VAS scale using the prompt of “My level of mental stamina right now is . . . ” (with rating lowest possible to highest possible)”. Results were collected as noted above and Table 10 provides exemplary results for Day 0 versus Day 4 ratings, whereas Table 11 provides exemplary acute results measured at Day 4 over a duration of 180 minutes.

subjects [4] = experiment: VAS-Mood; parameters: VAS-Mood rating, Mean / VAS-Mood changes from baseline, Mean Difference ± SE / VAS-Mood area under the curve, Mean Difference ± SE / VAS-Mood area under the curve, Mean: scale not given here
Experimental: as §1, §2, §3, §4
VAS-Mood: In this subjective test, subjects were asked to rate their personal level of energy on a VAS scale using the prompt of “My mood right now is . . . ” (with rating lowest possible to highest possible)”. Results were collected as noted above and Table 31 provides exemplary results for Day 0 versus Day 4 ratings, whereas Table 32 provides exemplary acute results measured at Day 4 over a duration of 180 minutes.

[5] = 100 mg once daily, Day 4, 0 min after dose #4
[6] = 100 mg once daily, Day 4, 60 min after dose #4
[7] = 100 mg once daily, Day 4, 120 min after dose #4
[8] = 100 mg once daily, Day 4, 180 min after dose #4
[9] = 100 mg once daily, Day 4, 0-180 min
[10] = 100 mg once daily, Day 4, 0-180 min, vs Group A (placebo)
[11] = 100 mg once daily, Day 4, 60 min-0 min, vs Group A (placebo)
[12] = 100 mg once daily, Day 4, 120 min-0 min, vs Group A (placebo)
[13] = 100 mg once daily, Day 4, 180 min-0 min, vs Group A (placebo)

With `COc1nc2c(c(=O)n1C)n(C)c(=O)n2C` [methylliberine, 2-methoxy-1,7,9-trimethylpurine-6,8-dione] as the molecule, how does the “Trail Making Test score, Mean” value (subjects [1]; [5]) read?
Its value is 21.6.

What about the “Trail Making Test score, Mean” value (subjects [1]; [6]) of the same molecule?
The value was 20.4.

And the “Trail Making Test score, Mean” value (subjects [1]; [7])?
The value was 20.2.

And the “Trail Making Test score, Mean” value (subjects [1]; [8])?
Its value is 20.3.

What about the “improvement in TMT performance” value (subjects [1]; 4-days daily supplementation, Day 4 vs Day 0, p<0.001) of the same molecule?
Its value is “+11.1%”.

And the “Trail Making Test score, Mean” value (subjects [1]; Day 0 (before supplementation))?
Its value is 24.3.

What about the “VAS-Vigor area under the curve, Mean” value (subjects [2]; [9]) of the same molecule?
Its value is 1112.

What about the “VAS-Vigor area under the curve, Mean Difference ± SE” value (subjects [2]; [10]) of the same molecule?
Its value is 21.8 ± 41.5.

And the “VAS-Vigor area under the curve, effect size d” value (subjects [2]; [10])?
The value was 0.07.

What about the “VAS-Vigor rating, Mean” value (subjects [2]; [5]) of the same molecule?
Its value is 5.8.

What about the “VAS-Vigor changes from baseline, Mean Difference ± SE” value (subjects [2]; [11]) of the same molecule?
The value was 0.02 ± 0.23.

And the “VAS-Vigor changes from baseline, effect size d” value (subjects [2]; [11])?
The value was 0.02.

And the “VAS-Vigor rating, Mean” value (subjects [2]; [6])?
Its value is 6.2.

What about the “VAS-Vigor changes from baseline, Mean Difference ± SE” value (subjects [2]; [12]) of the same molecule?
Its value is −0.12 ± 0.25.

And the “VAS-Vigor changes from baseline, effect size d” value (subjects [2]; [12])?
Its value is 0.13.

And the “VAS-Vigor rating, Mean” value (subjects [2]; [7])?
Its value is 6.3.

What about the “VAS-Vigor changes from baseline, Mean Difference ± SE” value (subjects [2]; [13]) of the same molecule?
The value was 0.43 ± 0.28.

What about the “VAS-Vigor changes from baseline, effect size d” value (subjects [2]; [13]) of the same molecule?
Its value is −0.41.

What about the “VAS-Vigor rating, Mean” value (subjects [2]; [8]) of the same molecule?
Its value is 6.4.

What about the “VAS-Vigor rating, Mean” value (subjects [2]; Day 0 (before supplementation)) of the same molecule?
Its value is 5.8.

And the “VAS-Mental Stamina area under the curve, Mean” value (subjects [3]; [9])?
The value was 1133.

What about the “VAS-Mental Stamina area under the curve, Mean Difference ± SE” value (subjects [3]; [10]) of the same molecule?
The value was 59.2 ± 46.2.

And the “VAS-Mental Stamina area under the curve, effect size d” value (subjects [3]; [10])?
Its value is 0.18.

And the “VAS-Mental Stamina rating, Mean” value (subjects [3]; [5])?
The value was 6.0.

What about the “VAS-Mental Stamina changes from baseline, Mean Difference ± SE” value (subjects [3]; [11]) of the same molecule?
Its value is −0.12 ± 0.22.

What about the “VAS-Mental Stamina changes from baseline, effect size d” value (subjects [3]; [11]) of the same molecule?
The value was −0.15.

And the “VAS-Mental Stamina rating, Mean” value (subjects [3]; [6])?
The value was 6.3.

What about the “VAS-Mental Stamina changes from baseline, Mean Difference ± SE” value (subjects [3]; [12]) of the same molecule?
Its value is −0.21 ± 0.28.

What about the “VAS-Mental Stamina changes from baseline, effect size d” value (subjects [3]; [12]) of the same molecule?
Its value is −0.21.

And the “VAS-Mental Stamina rating, Mean” value (subjects [3]; [7])?
Its value is 6.3.

And the “VAS-Mental Stamina changes from baseline, Mean Difference ± SE” value (subjects [3]; [13])?
The value was 0.16 ± 0.24.

And the “VAS-Mental Stamina changes from baseline, effect size d” value (subjects [3]; [13])?
The value was 0.15.

And the “VAS-Mental Stamina rating, Mean” value (subjects [3]; [8])?
The value was 6.6.

And the “VAS-Mental Stamina rating, Mean” value (subjects [3]; Day 0 (before supplementation))?
The value was 5.7.

And the “VAS-Mood area under the curve, Mean” value (subjects [4]; [9])?
Its value is 1220.

What about the “VAS-Mood area under the curve, Mean Difference ± SE” value (subjects [4]; [10]) of the same molecule?
Its value is 37.4 ± 250.7.

And the “VAS-Mood area under the curve, effect size d” value (subjects [4]; [10])?
Its value is 0.12.

What about the “VAS-Mood rating, Mean” value (subjects [4]; [5]) of the same molecule?
The value was 6.1.

What about the “VAS-Mood changes from baseline, Mean Difference ± SE” value (subjects [4]; [11]) of the same molecule?
The value was 0.38 ± 0.18.

What about the “VAS-Mood changes from baseline, effect size d” value (subjects [4]; [11]) of the same molecule?
Its value is 0.43.

And the “VAS-Mood rating, Mean” value (subjects [4]; [6])?
Its value is 6.7.

What about the “VAS-Mood changes from baseline, Mean Difference ± SE” value (subjects [4]; [12]) of the same molecule?
Its value is 0.45 ± 0.27.

What about the “VAS-Mood changes from baseline, effect size d” value (subjects [4]; [12]) of the same molecule?
Its value is 0.41.

What about the “VAS-Mood rating, Mean” value (subjects [4]; [7]) of the same molecule?
Its value is 7.0.

What about the “VAS-Mood changes from baseline, Mean Difference ± SE” value (subjects [4]; [13]) of the same molecule?
The value was 0.72 ± 0.30.

And the “VAS-Mood changes from baseline, effect size d” value (subjects [4]; [13])?
Its value is 0.65.

What about the “VAS-Mood rating, Mean” value (subjects [4]; [8]) of the same molecule?
Its value is 7.1.

What about the “VAS-Mood rating, Mean” value (subjects [4]; Day 0 (before supplementation)) of the same molecule?
Its value is 6.5.

From patent US20260256794A1, “Oral Dynamine Formulations and Methods Therefor” (Ortho-Nutra, LLC, priority 2023, published 2026)
